From patent publication US5576290A, “Compositions and methods for the diagnosis and treatment of psychogenic erectile dysfunction” (Competitive Technologies, Inc., priority 1994, dated 1996)
Bridge positions count the residues as written; N and C are the ends. Square brackets hold non-standard residues; d marks the D form. Ends that are not written are not given here. Peptide text beside a SMILES is read from it. Nle = CCCC[C@H](N)C(=O)O

Experiments:
[1] = test system: human volunteers; experiment: Erectile response after subcutaneous injection of peptide in human volunteers; assay type: in vivo
Procedure: The peptides described herein were prepared by sterile methods to a final concentration of 10 mg of peptide per ml of physiological saline. In addition to a full dose providing 10 mg of the peptide to the individual, doses of 0.1 to 0.3 ml (providing 1 mg to 3 mg of the peptide to each individual) of this stock material were also injected into volunteers, with a dose of 0.1 to 0.2 ml being the most often used dosage.
The onset of erection occurred about 1 to 2 hours after injection. […] A dose of 3.75 mg given to volunteers produced a long lasting erection of 4 to 6 hour duration. […] In some, this discomfort was considerable. […] Accordingly, although dosages of from about 1.0 mg to about 10.0 mg show the desired activity according to the present invention, it is preferred that the lower ranges of dosage which bring about the desired erection without undesirable side effects be used. Accordingly, it is preferred that dosages of about 1.5 mg to 2.5 mg of peptide be provided when the route of administration is subcutaneous or intramuscular. With other routes of administration, this range may require adjustment, however, it is still preferred that the lower range of adjusted effective dosages for the selected route of administration be used.

[2] = test system: patients; details: cited from earlier work
[3] = test system: men; details: oral, a few hundred men treated for depression, early 1980s; cited from earlier work
[4] = injection, alone or combined with phentolamine

## CCCC[C@H](NC(C)=O)C(=O)N[C@H]1CC(=O)NCCCC[C@@H](C(=O)NCC(N)=O)NC(=O)[C@H](Cc2c[nH]c3ccccc23)NC(=O)[C@H](CCCNC(=N)N)NC(=O)[C@@H](Cc2ccccc2)NC(=O)[C@H](Cc2c[nH]cn2)NC1=O (Ac-[Nle]DH[dF]RWKG-NH2; lactam 2-7)
[1]; 1.25 mg dose
  duration of erection (sustained intermittently): up to 6 hours
  induction of erection: induced an erection
[1]; 1.25 mg dose, compared with 2.5 mg
  onset of erection: took longer to initially occur
[1]; 2.5 mg
  time to erection following administration: ≤ 60 min
[1]; 2.5 mg and 1.25 mg doses
  stomach discomfort: No stomach discomfort was experienced

## COc1ccc(Cc2nccc3cc(OC)c(OC)cc23)cc1OC [papaverine]
[2]; [4]
  share of patients in whom erection is induced: about 70%
  side effects: pain, ecchymosis, and occasional episodes of priapism

## O=c1n(CCCN2CCN(c3cccc(Cl)c3)CC2)nc2ccccn12 [trazodone]
[3]
  erections as unexpected effect: prolonged and painful erections

## vasoactive intestinal peptide (HSDAVFTDNYTRLRKQMAVKKYLNSILN; ends and bridges not checked; UniProt P01282 125-152, looked up)
[2]; intrapenile injections, trials
  induction of full erection necessary for intercourse: proven ineffective
